# Test results reported in patent publication US9676756B2 (PORTOLA PHARMACEUTICALS, INC., priority 2012, dated 2017).
# Like-named read-outs stand apart in the source and are kept apart here.
# How the values were obtained:
# Format in all cases: biochemical
# [1] = target: T1, full length active recombinant SYK enzyme (Homo sapiens, UniProt P43405); assay: SYK tyrosine phosphorylation activity, LANCE TR-FRET kinase assay; details: 1 nM SYK, 100 μM ATP, 1 hour at room temperature
# T1 construct: full length active recombinant SYK enzyme (Millipore, CA); purchased Millipore
# Method: Potency of candidate molecules for inhibiting Syk tyrosine phosphorylation activity is assessed by measuring the ability of a test compound to inhibit Syk-mediated tyrosine phosphorylation of a Syk-specific substrate.
# SYK tyrosine phosphorylation activity is measured using the LANCE™ Technology developed by Perkin Elmer Life and Analytical Sciences (Boston, Mass.). LANCE™ refers to homogeneous time resolved fluorometry applications using techniques such as time-resolved fluorescence resonance energy transfer assay (TR-FRET) (see generally for procedures in Perkin Elmer Application Note—How to Optimize a Tyrosine Kinase Assay Using Time Resolved Fluorescence-Based LANCE Detection, wwww.perkinelmer.com/lifesciences). The assay principle involves detection of a phosphorylated substrate using energy transfer from a phosphospecific europium-labeled antibody to streptavidin-allophycocyanin as an acceptor.
# To test the ability of candidate molecules to inhibit SYK tyrosine phosphorylation activity, molecules are reconstituted in 30% DMSO and serially diluted 1:3 with the final dilution containing DMSO in the absence of the candidate molecule. The final DMSO concentration in the assay is 3%. Kinase assays are performed as a two part reaction. The first reaction is a kinase reaction that comprises a candidate molecule, full length active recombinant SYK enzyme (Millipore, CA) and biotin-labeled SYK-specific substrate biotin-[…]-OH. The second reaction involves termination of the kinase reaction and the simultaneous addition of the detection reagents-europium-labeled anti-phosphotyrosine reagent (Eu-W1024-PY100, Perkin Elmer, Boston, Mass.) and Streptavidin-Allophycocyanin detection reagent (SA-APC, Prozyme, CA). The kinase reaction is performed in a black U-bottom 96-well microtitre plate. The final reaction volume is 50 μL and contains a final concentration of 1 nM active SYK enzyme, 550 nM SYK-substrate, and 100 μM ATP diluted in a buffer containing 50 mM Tris pH 7.5, 5 mM MgCl2, and 1 mM DTT. The reaction is allowed to proceed for 1 hour at room temperature. The stop buffer contains 100 mM Tris pH 7.5, 300 mM NaCl2, 20 mM EDTA, 0.02% Brij35, and 0.5% BSA. The detection reagents are added to the reaction mixture at the following dilutions—1:500 for Eu-W1024-PY100 and 1:250 for SA-APC. The kinase reaction is terminated by the addition of 50 μL stop buffer containing the detection reagents. The detection is allowed to proceed for 1 hr at room temperature. Detection of the phosphorolated substrate in the absence and presence of inhibitors is measured in the TR-FRET instrument, Analyst HT (Molecular Probes, Sunnyvale, Calif.) and the condition for measurements are set up using CriterionHost Release 2.0 (Molecular Probes, Sunnyvale, Calif.). The settings used are a follows: excitation 360 nm, emission 665-7.5 nm, beam splitter 350 nm 50/50, flash 100 pulses, delay 60 us, integration 400 us, z-height 2 mm. Inhibition of SYK-tyrosine kinase activity is calculated as the maximum response observed in the presence of inhibitor, compared to that in the absence of inhibitor. IC50s are derived by non-linear regression analysis.
# JAK3 = target: T2, JAK3 (Homo sapiens, UniProt P52333); assay: JAK tyrosine phosphorylation activity, Z'-LYTE FRET kinase assay; details: catalytic domain recombinant kinase, Tyr6 peptide
# T2 construct: 5 μl of catalytic domain recombinant Kinase enzyme+Tyr peptide substrate (Invitrogen, CA); purchased Invitrogen
# Method: (§1) JAK and SYK tyrosine phosphorylation activity is measured using the Z'-LYTE™ Technology developed by Invitrogen Corporation (Carlsbad, Calif.). For JAK1, JAK2 and JAK3 the Z'-LYTE™ Kinase Assay Kit-Tyr6 Peptide (part number PV4122) was used. The Z'-LYTE™ biochemical assay employs a fluorescence resonance energy transfer (FRET) coupled-enzyme format and is based on the differential sensitivity of phosphorylated and non-phosphorylated peptides to proteolitic cleavage. The assay uses a synthetic peptide substrate that is labelled with a donor fluorophore (coumarin) and an acceptor fluorophore (fluorescein) that make up a FRET pair. In the primary reaction (the Kinase Reaction), the kinase transfers the γ-phosphate of ATP to a single tyrosine residue on the substrate, while the presence of a kinase inhibitor in the primary reaction suppresses phosphorylation. In the secondary reaction (the Development Reaction), a site-specific protease (the Development Reagent) is added. The development buffer quenches the Kinase Reaction, while the protease recognizes and cleaves non-phosphorylated Z'-LYTE™ peptide substrate. Cleavage disrupts FRET between the donor and acceptor fluorophores on the non-phosphorylated substrate, while uncleaved, phosphorylated substrate maintains FRET.
# (§2) To test the ability of candidate molecules to inhibit JAK tyrosine phosphorylation activity, molecules are reconstituted in 100% DMSO and serially diluted 1:10 in polypropylene v-bottom microtiter plates. The candidate molecules are then diluted 1:25 into kinase buffer and 2.5 μl transferred into duplicate wells of a 384 well low volume black microtiter assay plate (Corning, USA). The final DMSO concentration in the assay is 1%. The kinase reaction contains 2.5 μl of a candidate molecule, 5 μl of catalytic domain recombinant Kinase enzyme+Tyr peptide substrate (Invitrogen, CA) and 2.5 μl ATP (Invitrogen, CA). The kinase reaction is allowed to precede for 1 hour at room temperature. The protease reaction is initiated by the addition of 5 μl Development Reagent (Invitrogen, CA). After 1 hour incubation at room temperature the fluorescence is measured using a FlexStation plate reader (Molecular Devices, Sunnyvale, Calif.). The reader settings used are as follows: Fluorescence mode, endpoint, top read, excitation 400 nm, emission 445 nm and 520 nm. Auto Cutoff 435 nm and 515 nm, PMT sensitivity high, 6 reads per well. Inhibition of JAK activity is calculated as the percent phosphorylation of substrate in the presence of inhibitor compared to the percent phosphorylation of substrate in the absence of inhibitor. IC50's were derived using Xlfit 4.3 (IDBS, UK), 4 parameter logistic model 205: Y=(A+((B−A)/(1+((C/x)^D)))).
# JAK1 = target: T3, JAK1 (Homo sapiens, UniProt P23458); assay: as above; details: catalytic domain recombinant kinase, Tyr6 peptide
# T3 construct: 5 μl of catalytic domain recombinant Kinase enzyme+Tyr peptide substrate (Invitrogen, CA); purchased Invitrogen
# Method: as §1, §2
# JAK2 = target: T4, JAK2 (Homo sapiens, UniProt O60674); assay: as above; details: catalytic domain recombinant kinase, Tyr6 peptide
# T4 construct: 5 μl of catalytic domain recombinant Kinase enzyme+Tyr peptide substrate (Invitrogen, CA); purchased Invitrogen
# Method: as §1, §2
# T4 sequence (O60674 849-1124 limits assumed): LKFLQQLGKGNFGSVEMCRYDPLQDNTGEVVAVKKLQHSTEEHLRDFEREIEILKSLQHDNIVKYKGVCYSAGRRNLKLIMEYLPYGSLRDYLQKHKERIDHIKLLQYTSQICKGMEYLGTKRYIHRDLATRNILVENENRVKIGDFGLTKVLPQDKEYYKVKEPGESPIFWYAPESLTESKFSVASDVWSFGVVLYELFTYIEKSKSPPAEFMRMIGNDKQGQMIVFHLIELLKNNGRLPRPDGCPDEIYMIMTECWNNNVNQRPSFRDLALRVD
# T2 sequence (P52333 822-1111 limits assumed): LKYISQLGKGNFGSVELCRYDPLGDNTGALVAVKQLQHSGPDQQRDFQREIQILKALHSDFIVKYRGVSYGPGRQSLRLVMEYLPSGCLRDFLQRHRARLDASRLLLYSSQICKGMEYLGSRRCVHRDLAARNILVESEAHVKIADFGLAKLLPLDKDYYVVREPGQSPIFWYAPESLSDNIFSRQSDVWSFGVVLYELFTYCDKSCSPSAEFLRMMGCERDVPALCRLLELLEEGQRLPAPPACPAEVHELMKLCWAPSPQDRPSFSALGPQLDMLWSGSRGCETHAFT
# T3 sequence (P23458 875-1153 limits assumed): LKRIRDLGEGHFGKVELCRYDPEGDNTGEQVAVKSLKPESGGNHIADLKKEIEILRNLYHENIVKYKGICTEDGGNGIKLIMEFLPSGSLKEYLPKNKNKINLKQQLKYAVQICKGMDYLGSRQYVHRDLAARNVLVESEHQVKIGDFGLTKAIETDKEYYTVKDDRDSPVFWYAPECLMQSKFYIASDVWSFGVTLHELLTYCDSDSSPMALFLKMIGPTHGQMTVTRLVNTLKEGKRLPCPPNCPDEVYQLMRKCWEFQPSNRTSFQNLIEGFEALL
IC50 [1],JAK3 IC50 potency class (JAK3),JAK1 IC50 potency class (JAK1),JAK2 IC50 potency class (JAK2),IC50 ([1]; read-out: Syk IC50 % Inhibition),IC50 (JAK3; read-out: JAK3 IC50 % Inhibition),IC50 (JAK1; read-out: JAK1 IC50 % Inhibition),IC50 (JAK2; read-out: JAK2 IC50 % Inhibition),Structure (SMILES)
+++ (0.10 uM<IC50<0.01 uM),++++ (0.01 uM<IC50<0.001 uM),+++ (0.10 uM<IC50<0.01 uM),++++ (0.01 uM<IC50<0.001 uM),,,,,"N#CCC(=O)N1CCC(c2ccc(Nc3ncc(C(N)=O)c(NC4CC4)n3)cc2)CC1 [Compound 25, 2-((4-(1-(2-cyanoacetyl)piperidin-4-yl)phenyl)amino)-4-(cyclopropylamino)pyrimidine-5-carboxamide]"
+++ (0.10 uM<IC50<0.01 uM),++++ (0.01 uM<IC50<0.001 uM),+++ (0.10 uM<IC50<0.01 uM),++++ (0.01 uM<IC50<0.001 uM),,,,,"NC(=O)c1cnc(Nc2ccc(C3CCNCC3)cc2)nc1NC1CC1 [Compound 55, 4-(cyclopropylamino)-2-((4-(piperidin-4-yl)phenyl)amino)pyrimidine-5-carboxamide]"
+++ (0.10 uM<IC50<0.01 uM),++++ (0.01 uM<IC50<0.001 uM),+++ (0.10 uM<IC50<0.01 uM),++++ (0.01 uM<IC50<0.001 uM),,,,,"CCS(=O)(=O)N1CCC(c2ccc(Nc3ncc(C(N)=O)c(NC4CC4)n3)cc2)CC1 [Compound 1, 4-(cyclopropylamino)-2-((4-(1-(ethylsulfonyl)piperidin-4-yl)phenyl)amino)pyrimidine-5-carboxamide]"
+++ (0.10 uM<IC50<0.01 uM),++++ (0.01 uM<IC50<0.001 uM),+++ (0.10 uM<IC50<0.01 uM),+++ (0.10 uM<IC50<0.01 uM),,,,,"CC(C)N1CCC(c2ccc(Nc3ncc(C(N)=O)c(NC4CC4)n3)cc2)CC1 [Compound 4, 4-(cyclopropylamino)-2-((4-(1-isopropylpiperidin-4-yl)phenyl)amino)pyrimidine-5-carboxamide]"
++ (1.0 uM<IC50<0.10 uM),++++ (0.01 uM<IC50<0.001 uM),+++ (0.10 uM<IC50<0.01 uM),+++ (0.10 uM<IC50<0.01 uM),,,,,"CN(C)S(=O)(=O)N1CCC(c2ccc(Nc3ncc(C(N)=O)c(NC4CC4)n3)cc2)CC1 [Compound 12, 4-(cyclopropylamino)-2-((4-(1-(N,N-dimethylsulfamoyl)piperidin-4-yl)phenyl)amino)pyrimidine-5-carboxamide]"
+++ (0.10 uM<IC50<0.01 uM),++++ (0.01 uM<IC50<0.001 uM),+++ (0.10 uM<IC50<0.01 uM),++++ (0.01 uM<IC50<0.001 uM),,,,,"CC(C)S(=O)(=O)N1CCC(c2ccc(Nc3ncc(C(N)=O)c(NC4CC4)n3)cc2)CC1 [Compound 3, 4-(cyclopropylamino)-2-((4-(1-(isopropylsulfonyl)piperidin-4-yl)phenyl)amino)pyrimidine-5-carboxamide]"
,,,,> 1 µM,> 1 µM,> 1 µM,> 1 µM,"NC(=O)c1cnc(NC2CC2)cc1Nc1ccc(C2CCNCC2)cc1 [Compound 68, 6-(cyclopropylamino)-4-((4-(piperidin-4-yl)phenyl)amino)nicotinamide]"

# Second part, the compound before the results:
Structure (SMILES),IC50 [1],JAK3 IC50 potency class (JAK3),JAK1 IC50 potency class (JAK1),JAK2 IC50 potency class (JAK2),IC50 ([1]; read-out: Syk IC50 % Inhibition),IC50 (JAK3; read-out: JAK3 IC50 % Inhibition),IC50 (JAK1; read-out: JAK1 IC50 % Inhibition),IC50 (JAK2; read-out: JAK2 IC50 % Inhibition)
"CS(=O)(=O)N1CCN(c2ccc(Nc3ncc(C(N)=O)c(NC4CC4)n3)cc2Cl)CC1 [Compound 69, 2-((3-chloro-4-(4-(methylsulfonyl)piperazin-1-yl)phenyl)amino)-4-(cyclopropylamino)pyrimidine-5-carboxamide]",+++ (0.10 uM<IC50<0.01 uM),++++ (0.01 uM<IC50<0.001 uM),+++ (0.10 uM<IC50<0.01 uM),++++ (0.01 uM<IC50<0.001 uM),,,,
"NC(=O)c1cnc(Nc2ccc(C3CCN(C(=O)N4CCOCC4)CC3)cc2)nc1NC1CC1 [Compound 6, 4-(cyclopropylamino)-2-((4-(1-(morpholine-4-carbonyl)piperidin-4-yl)phenyl)amino)pyrimidine-5-carboxamide]",+++ (0.10 uM<IC50<0.01 uM),++++ (0.01 uM<IC50<0.001 uM),+++ (0.10 uM<IC50<0.01 uM),++++ (0.01 uM<IC50<0.001 uM),,,,
"CC(C)c1ccc(Nc2ncc(C(N)=O)c(NC3CC3)n2)cc1 [Compound 59, 4-(cyclopropylamino)-2-((4-isopropylphenyl)amino)pyrimidine-5-carboxamide]",+++ (0.10 uM<IC50<0.01 uM),+++ (0.10 uM<IC50<0.01 uM),++ (1.0 uM<IC50<0.10 uM),++ (1.0 uM<IC50<0.10 uM),,,,
"CCS(=O)(=O)N1CCN(c2ccc(Nc3ncc(C(N)=O)c(NC4CC4)n3)cc2Cl)CC1 [Compound 43, 2-((3-chloro-4-(4-(ethylsulfonyl)piperazin-1-yl)phenyl)amino)-4-(cyclopropylamino)pyrimidine-5-carboxamide]",+++ (0.10 uM<IC50<0.01 uM),+++ (0.10 uM<IC50<0.01 uM),++ (1.0 uM<IC50<0.10 uM),+++ (0.10 uM<IC50<0.01 uM),,,,
"CS(=O)(=O)N1CCN(c2ccc(Nc3ncc(C(N)=O)c(NC4CC4)n3)cc2F)CC1 [Compound 41, 4-(cyclopropylamino)-2-((3-fluoro-4-(4-(methylsulfonyl)piperazin-1-yl)phenyl)amino)pyrimidine-5-carboxamide]",+++ (0.10 uM<IC50<0.01 uM),++++ (0.01 uM<IC50<0.001 uM),+++ (0.10 uM<IC50<0.01 uM),++++ (0.01 uM<IC50<0.001 uM),,,,
"CN(C)C(=O)C1CCN(c2ccc(Nc3ncc(C(N)=O)c(NC4CC4)n3)cc2Cl)CC1 [Compound 53, 2-((3-chloro-4-(4-(dimethylcarbamoyl)piperidin-1-yl)phenyl)amino)-4-(cyclopropylamino)pyrimidine-5-carboxamide]",+++ (0.10 uM<IC50<0.01 uM),++++ (0.01 uM<IC50<0.001 uM),+++ (0.10 uM<IC50<0.01 uM),++++ (0.01 uM<IC50<0.001 uM),,,,
